# Data published in patent publication US9623014B2 (Entasis Therapeutics Limited, priority 2012, dated 2017).
# Structures can show the parent of a compound that is named as a salt.
# Key:
# [1] = system: Klebsiella pneumoniae KPC2; assay: Synergy with β-lactams (MIC of β-lactam at fixed inhibitor concentration); assay type: cell-based; details: MIC of ceftazidime + inhibitor at fixed 4 ug/ml
# Procedure: (§1) Synergy with β-lactams was assessed against several organisms producing a variety of β-lactamases belonging to different classes. Bush & Jacoby, Updated Functional Classification of β-Lactamases, Antimicrobial Agents and Chemotherapy, 54:969-76 (2010). In the assays, growth inhibitory activity (MIC) was measured using either two-fold dilutions of the partner β-lactam at a fixed concentration of compounds of formula (I). Compounds were prepared in DMSO, and MIC determinations using the compound of formula (I)/β-lactam combinations were done according to the CLSI guidelines. Clinical Laboratory Standards Institute: Methods for Dilution Antimicrobial Susceptability Tests for Bacteria That Grow Aerobically (8th Ed. (2009)) M07-A8. Synergy was defined as a four-fold or more reduction in the MIC of the β-lactam in the presence of the compound of formula (I), compared to the β-lactam alone.
# S. aureus (MSSA) = assay: MIC, broth microdilution (CLSI); assay type: cell-based, Staphylococcus aureus; details: compound alone; for MIC: Staphylococcus aureus, MSSA
# Procedure: (§2) Minimum Inhibitory Concentrations (MICs) were determined by the broth microdilution method in accordance with the Clinical and Laboratory Standards Institute (CLSI) guidelines. Clinical Laboratory Standards Institute: Methods for Dilution Antimicrobial Susceptability Tests for Bacteria That Grow Aerobically (8th Ed. (2009)) M07-A8. In brief, organism suspensions were adjusted to a 0.5 McFarland standard and further diluted to yield a final inoculum between 3×10^5 and 7×10^5 colony-forming units (CFU)/mL. Bacterial inocula were made in sterile, cation adjusted Mueller-Hinton Broth (Beckton Dickinson) for either Escherichia coli, Klebsiella pneumoniae, or Pseudomonas aeruginosa. Haemophilus influenzae bacterial inocula were made in sterile, cation adjusted Mueller-Hinton Broth (Beckton Dickinson) containing 0.5% yeast extract (Beckton Dickinson) plus 15 μg/ml Bovine Hematin (Sigma) and 15 μg/ml β-nicotinamide adenine dinucleotide (Sigma). Bacterial inocula were made in sterile, cation adjusted Mueller-Hinton Broth (Beckton Dickinson) for Staphylococcus aureus or sterile, cation adjusted Mueller-Hinton Broth containing 2.5% lysed horse blood (Hema Resource & Supply Inc.) for Streptococcus pneumoniae and Streptococcus pyogenes. An inoculum volume of 100 uL was added to wells (using a Tecan EVO robot) containing 2 uL of DMSO containing 2-fold serial dilutions of drug. […] All inoculated microdilution trays were incubated in ambient air at 35° C. for 18-24 hours. Following incubation, the lowest concentration of the drug that prevented visible growth as read at OD600 nm was recorded as the MIC. Performance of the assay was monitored by the use of laboratory quality-control strains and commercially available control compounds with defined MIC spectrums, in accordance with CLSI guidelines.
# S. aureus (MRSA) = assay: MIC, broth microdilution (CLSI); assay type: cell-based, Staphylococcus aureus; details: compound alone; for MIC: Staphylococcus aureus, MRSA
# Procedure: as §2
# [2] = system: Pseudomonas aeruginosa PER-1, OXA-10; assay: MIC alone against β-lactamase producing strain; assay type: cell-based; details: substance alone; for MIC: Pseudomonas aeruginosa
# Procedure: as §2
# [3] = system: Pseudomonas aeruginosa AmpC (first AmpC column); assay: MIC alone against β-lactamase producing strain; assay type: cell-based; details: substance alone, column 2
# Procedure: as §2
# [4] = system: Pseudomonas aeruginosa AmpC (second AmpC column); assay: MIC alone against β-lactamase producing strain; assay type: cell-based; details: substance alone, column 4
# Procedure: as §2
# [5] = system: Klebsiella pneumoniae KPC2; assay: MIC alone against β-lactamase producing strain; assay type: cell-based; details: substance alone; for MIC: Klebsiella pneumoniae, KPC2
# Procedure: as §2
# Streptococcus pyogenes = assay: MIC, broth microdilution (CLSI); assay type: cell-based; details: compound alone; for MIC: Streptococcus pyogenes, read-out: MIC S. pyogenes
# Procedure: as §2
# Streptococcus pneumoniae = assay: MIC, broth microdilution (CLSI); assay type: cell-based; details: compound alone; for MIC: Streptococcus pneumoniae, read-out: MIC S. pneumon.
# Procedure: as §2
# Klebsiella pneumoniae = assay: MIC, broth microdilution (CLSI); assay type: cell-based; details: compound alone; for MIC: Klebsiella pneumoniae, read-out: MIC K. pneumon.
# Procedure: as §2
# Pseudomonas aeruginosa = assay: MIC, broth microdilution (CLSI); assay type: cell-based; details: compound alone; for MIC: Pseudomonas aeruginosa, read-out: MIC P. aeruginosa
# Procedure: as §2
# Escherichia coli = assay: MIC, broth microdilution (CLSI); assay type: cell-based; details: compound alone; for MIC: Escherichia coli
# Procedure: as §2
# Haemophilus influenzae = assay: MIC, broth microdilution (CLSI); assay type: cell-based; details: compound alone; for MIC: Haemophilus influenzae, read-out: MIC H. influenzae
# Procedure: as §2
# [6] = system: Pseudomonas aeruginosa PER-1, OXA-10; assay: Synergy with β-lactams (MIC of β-lactam at fixed inhibitor concentration); assay type: cell-based; details: MIC of ceftazidime + inhibitor at fixed 4 ug/ml
# Procedure: as §1
Compound,MIC (S. aureus (MSSA)),MIC (S. aureus (MRSA)),MIC [2],MIC [3],MIC [4],MIC [5],MIC (Streptococcus pyogenes),MIC (Streptococcus pneumoniae),MIC (Klebsiella pneumoniae),MIC (Pseudomonas aeruginosa),MIC (Escherichia coli),MIC (Haemophilus influenzae),also measured
"CC(=O)NCCC1=C[C@@H](C(N)=O)N2C[C@@H]1N(OS(=O)(=O)[O-])C2=O.[Na+] [Ex. 25, (2S,5R)-4-(2-acetamidoethyl)-2-carbamol-7-oxo-1,6-diazabicyclo[3.2.1]oct-3-en-6-yl sulfate sodium salt]",,,,,,,,,,,,,MIC Klebsiella pneumoniae KPC2 [1]: >8 µM
"CC1=C[C@@H](C(N)=O)N2C[C@@H]1N(OS(=O)(=O)O)C2=O.[Na] [Example 1, (2S,5R)-2-carbamoyl-4-methyl-7-oxo-1,6-diazabicyclo[3.2.1]oct-3-en-6-yl hydrogen sulfate sodium salt]",25 µg/mL,> 200 µg/mL,> 64 µg/mL,64 µg/mL,> 64 µg/mL,8 µg/mL,3.13 µg/mL,6.25 µg/mL,50 µg/mL,200 µg/mL,50 µg/mL,,
"CC1=C[C@@H](C#N)N2C[C@@H]1N(OS(=O)(=O)O)C2=O.[Na] [Example 2, (2S,5R)-2-cyano-4-methyl-7-oxo-1,6-diazabicyclo[3.2.1]oct-3-en-6-yl hydrogen sulfate sodium salt]",100 µg/mL,100 µg/mL,> 64 µg/mL,> 64 µg/mL,> 64 µg/mL,64 µg/mL,3.13 µg/mL,25 µg/mL,100 µg/mL,> 200 µg/mL,100 µg/mL,12.5 µg/mL,
"CC1=C[C@@H](C(=O)NCCN)N2C[C@@H]1N(OS(=O)(=O)O)C2=O [Example 6, (2S,5R)-2-(2-aminoethylcarbamoyl)-4-methyl-7-oxo-1,6-diazabicyclo[3.2.1]oct-3-en-6-yl hydrogen sulfate]",200 µg/mL,> 200 µg/mL,16 µg/mL,16 µg/mL,16 µg/mL,0.25 µg/mL,25 µg/mL,25 µg/mL,> 200 µg/mL,25 µg/mL,> 200 µg/mL,> 200 µg/mL,
CC(C)C1=C[C@@H]2CN(C(=O)N2OS(=O)(=O)[O-])[C@@H]1C(N)=O.[Na+] [Example 11],,,,,,,,,,,,,"MIC S. aureus (MSSA) (S. aureus (MSSA)): 100 µg/mL; MIC S. aureus (MRSA) (S. aureus (MRSA)): >200 µg/mL; MIC Pseudomonas aeruginosa PER-1, OXA-10 [6]: 16 µM; MIC Klebsiella pneumoniae KPC2 [1]: 1 µM; MIC Pseudomonas aeruginosa PER-1, OXA-10 [2]: >16 µg/mL; MIC Klebsiella pneumoniae KPC2 [5]: >16 µg/mL; MIC S. pyogenes (Streptococcus pyogenes): 25 µg/mL; MIC S. pneumon. (Streptococcus pneumoniae): 25 µg/mL; MIC K. pneumon. (Klebsiella pneumoniae): >200 µg/mL; MIC H. influenzae (Haemophilus influenzae): >200 µg/mL; MIC P. aeruginosa (Pseudomonas aeruginosa): >200 µg/mL; MIC E. coli (Escherichia coli): >200 µg/mL"
"COCC1=C[C@@H](COC)N2C[C@@H]1N(OS(=O)(=O)[O-])C2=O.[Na+] [Example 13, (2S,5R)-2,4-bis(methoxymethyl)-7-oxo-1,6-diazabicyclo[3.2.1]oct-3-en-6-yl sulfate Sodium salt]",> 200 µg/mL,> 200 µg/mL,> 16 µg/mL,> 16 µg/mL,> 16 µg/mL,> 16 µg/mL,100 µg/mL,50 µg/mL,> 200 µg/mL,> 200 µg/mL,> 200 µg/mL,200 µg/mL,
"CC1=C[C@@H](CO)N2C[C@@H]1N(OS(=O)(=O)[O-])C2=O.[Na+] [Example 16, (2S,5R)-2-(hydroxymethyl)-4-methyl-7-oxo-1,6-diazabicyclo[3.2.1]oct-3-en-6-yl hydrogen sulfate Sodium Salt]",100 µg/mL,> 200 µg/mL,> 16 µg/mL,> 16 µg/mL,> 16 µg/mL,8 µg/mL,50 µg/mL,50 µg/mL,100 µg/mL,> 200 µg/mL,100 µg/mL,50 µg/mL,
